Test results from article PMC3681807 (Neuropharmacology, 2013).
Entries after “also recorded” stand apart in the source; their conditions may differ. Where two headings read alike, the source gives them in different places.

Legend:
[1] = test system: Male Wistar rats; assay: intravenous self-administration acquisition; format: in vivo, rat; conditions: for infusion rate (M) / lever discrimination (M): 0.05 mg/kg/inf, FR5, 7 non-food-restricted sessions; for self-administered drug, Max / self-administered drug, Mean: 0.05 mg/kg/infusion i.v., within 10 training sessions; for level of drug intake from session to session: during acquisition
[2] = test system: Male Wistar rats; assay: fixed-ratio; format: in vivo, rat
[3] = test system: Male Wistar rats; assay: progressive-ratio dose-response self-administration testing; format: in vivo, rat; conditions: for number of correct lever presses (M) / post-reinforcement pause duration (M) / time to reach breakpoint: PR; for number of correct lever presses (M) / post-reinforcement pause duration (M): 1st 3 hours of session
[4] = test system: Male Wistar rats; assay: locomotor activity by radiotelemetry after non-contingent s.c. administration; format: in vivo, rat; conditions: for maximal increase of activity over baseline and/or vehicle: lower doses
[5] = test system: Male Wistar rats; assay: body temperature by radiotelemetry after non-contingent s.c. administration; format: in vivo, rat; conditions: for effect on body temperature: 0–5.6 mg/kg s.c., MDPV at TA about 23 °C
[6] = test system: DAT/SERT; conditions: ref Simmler et al., 2013; cited from earlier work
[7] = test system: alpha adrenergic receptors; conditions: ref Roth et al., 2000, Rothman et al., 2001, 2003; cited from earlier work
[8] = test system: Male Wistar rats; assay: stereotypy after self-administration sessions; format: in vivo, rat; conditions: FR5 dose-response testing
[9] = test system: Male Wistar rats; assay: stereotypy scores after non-contingent administration; format: in vivo, rat
[10] = test system: dopamine transporter (DAT); conditions: rat synaptosomes; ref Baumann et al., 2013; cited from earlier work
[11] = test system: noradrenaline transporter (NET); conditions: rat synaptosomes; ref Baumann et al., 2013; cited from earlier work
[12] = test system: serotonin transporter (SERT); conditions: rat synaptosomes; ref Baumann et al., 2013; cited from earlier work
[13] = test system: dopamine transporter (DAT); conditions: human transporters expressed by HEK 293 cells; ref Simmler et al., 2013; cited from earlier work
[14] = test system: noradrenaline transporter (NET); conditions: human transporters expressed by HEK 293 cells; ref Simmler et al., 2013; cited from earlier work
[15] = test system: serotonin transporter (SERT); conditions: human transporters expressed by HEK 293 cells; ref Simmler et al., 2013; cited from earlier work
[16] = test system: monoamine release; conditions: ref Baumann et al., 2013, Simmler et al.; cited from earlier work
[17] = test system: Sprague-Dawley rats; conditions: s.c.; ref Baumann et al., 2013; cited from earlier work
[18] = test system: mice; conditions: i.p.; ref Marusich et al., 2012; cited from earlier work
[19] = target: noradrenergic transporter (Homo sapiens, UniProt P23975); assay: biochemical
Chain of noradrenergic transporter (P23975 whole entry): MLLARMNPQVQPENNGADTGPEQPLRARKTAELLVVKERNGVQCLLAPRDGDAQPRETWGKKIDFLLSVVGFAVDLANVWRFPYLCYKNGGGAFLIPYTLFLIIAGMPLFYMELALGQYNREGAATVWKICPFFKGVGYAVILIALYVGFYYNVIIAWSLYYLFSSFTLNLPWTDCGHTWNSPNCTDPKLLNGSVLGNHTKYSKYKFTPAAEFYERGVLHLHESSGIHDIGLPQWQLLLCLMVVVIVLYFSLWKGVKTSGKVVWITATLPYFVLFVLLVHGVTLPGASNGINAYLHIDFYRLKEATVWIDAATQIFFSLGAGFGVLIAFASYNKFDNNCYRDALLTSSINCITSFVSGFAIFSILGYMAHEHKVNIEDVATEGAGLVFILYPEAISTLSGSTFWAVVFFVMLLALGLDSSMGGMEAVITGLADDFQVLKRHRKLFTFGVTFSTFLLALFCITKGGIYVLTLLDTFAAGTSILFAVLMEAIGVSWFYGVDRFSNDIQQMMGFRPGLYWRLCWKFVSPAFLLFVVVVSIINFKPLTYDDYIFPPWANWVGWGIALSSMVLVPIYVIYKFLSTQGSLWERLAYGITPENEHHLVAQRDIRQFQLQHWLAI

[20] = target: serotonin transporter (Homo sapiens, UniProt P31645); assay: biochemical
Chain of serotonin transporter (P31645 whole entry, the tested form may be a part): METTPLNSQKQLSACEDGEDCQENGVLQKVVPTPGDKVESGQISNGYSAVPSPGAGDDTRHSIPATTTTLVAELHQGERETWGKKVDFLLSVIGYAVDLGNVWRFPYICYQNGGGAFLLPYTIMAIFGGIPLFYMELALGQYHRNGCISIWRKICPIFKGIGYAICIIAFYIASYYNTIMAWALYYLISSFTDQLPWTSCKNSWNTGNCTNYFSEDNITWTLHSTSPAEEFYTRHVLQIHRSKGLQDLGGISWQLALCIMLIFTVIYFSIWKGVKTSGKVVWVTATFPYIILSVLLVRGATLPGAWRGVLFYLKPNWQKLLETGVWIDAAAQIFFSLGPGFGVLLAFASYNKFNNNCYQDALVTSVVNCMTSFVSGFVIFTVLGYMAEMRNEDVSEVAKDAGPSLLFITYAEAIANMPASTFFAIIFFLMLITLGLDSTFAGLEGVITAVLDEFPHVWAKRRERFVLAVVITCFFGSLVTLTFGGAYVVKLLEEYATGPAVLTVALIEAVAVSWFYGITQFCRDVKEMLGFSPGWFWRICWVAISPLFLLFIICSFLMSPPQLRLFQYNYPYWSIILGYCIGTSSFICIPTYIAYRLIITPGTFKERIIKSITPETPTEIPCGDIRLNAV

[21] = FR5, per-infusion dose 0.01 mg/kg
[22] = FR5, per-infusion dose 0.05 mg/kg
[23] = FR5, per-infusion dose 0.10 mg/kg
[24] = FR5, per-infusion dose 0.25 mg/kg
[25] = 1.0 mg/kg s.c., MDPV 30- and 60-min bins, METH 30-, 90- and 120-min bins
[26] = 1.0 mg/kg s.c., MDPV 180-min bin, METH 30- to 120-min bins
[27] = 5.6 mg/kg s.c., summed deviations from mean of vehicle
[28] = FR5, per-infusion dose 0.50 mg/kg

CN[C@@H](C)Cc1ccccc1 [METH, d-methamphetamine, reference compound]
infusion rate (M) [1]: 8 inf/hr
lever discrimination (M) [1]: 83%
self-administered drug, Max [1]: 1.15 mg/kg/h
self-administered drug, Mean [1]: 0.4 mg/kg/h
level of drug intake from session to session [1]: ~ 0.5 mg/kg/hr
infusion rate (M) [2, 21]: 8 infusions/hour
post-reinforcement pause length (M) [2, 21]: 94 s
infusion rate (M) [2, 22]: 6 infusions/hour
post-reinforcement pause length (M) [2, 22]: 106 s
infusion rate (M) [2, 23]: 5 infusions/hour
post-reinforcement pause length (M) [2, 23]: 170 s
infusion rate (M) [2, 24]: 4 infusions/hour
post-reinforcement pause length (M) [2, 24]: 162 s
number of correct lever presses (M) ([3]; per-infusion dose 0.01 mg/kg): 60
post-reinforcement pause duration (M) ([3]; per-infusion dose 0.01 mg/kg): 276 s
number of correct lever presses (M) ([3]; per-infusion dose 0.05 mg/kg): 74
post-reinforcement pause duration (M) ([3]; per-infusion dose 0.05 mg/kg): 103 s
number of correct lever presses (M) ([3]; per-infusion dose 0.10 mg/kg): 250
post-reinforcement pause duration (M) ([3]; per-infusion dose 0.10 mg/kg): 113 s
number of correct lever presses (M) ([3]; per-infusion dose 0.25 mg/kg): 135
post-reinforcement pause duration (M) ([3]; per-infusion dose 0.25 mg/kg): 490 s
locomotor activity compared with vehicle [4, 25]: higher
locomotor activity compared with vehicle ([4]; 5.6 mg/kg s.c., 60–150-min post-injection time bins): lower
resolution of high-dose suppression of locomotion [4]: 150–180 minutes post-injection
duration of significant low-dose locomotor stimulation [4]: 120 minutes post-injection
maximal increase of activity over baseline and/or vehicle [4]: about 4 fold
effect on body temperature [5]: increased monotonically
body temperature compared to pre-injection baseline [5, 26]: higher
body temperature compared to vehicle ([5]; 5.6 mg/kg s.c., 60- to 150-min time bins): higher
body temperature compared to pre-injection baseline ([5]; 5.6 mg/kg s.c., 60- to 90-min post-injection time bins): higher
AUC for body temperature, METH vs MDPV [5, 27]: higher for METH than for MDPV
average body temperature as a function of dose ([5]; 20±2 °C TA): did not vary as a function of drug condition
average body temperature as a function of dose ([5]; TA of 25±2 °C, doses in mg/kg s.c.): 5.6 > 1.0 > vehicle
DAT/SERT inhibition ratio [6]: > 10
binding affinity [7]: low affinity binding

CCCC(C(=O)c1ccc2c(c1)OCO2)N1CCCC1 (centres unmarked) [MDPV, 1-(1,3-benzodioxol-5-yl)-2-(1-pyrrolidinyl)-1-pentanone]
infusion rate (M) [1]: 19 inf/hr
lever discrimination (M) [1]: 86%
self-administered drug, Max [1]: 5.8 mg/kg/h
self-administered drug, Mean [1]: 0.9 mg/kg/h
level of drug intake from session to session [1]: ~ 1 mg/kg/hr
reward-lever selectivity ([1]; for most rats): > 80%
infusion rate (M) [2, 21]: 35 infusions/hour
post-reinforcement pause length (M) [2, 21]: 48 s
infusion rate (M) [2, 22]: 13 infusions/hour
post-reinforcement pause length (M) [2, 22]: 107 s
infusion rate (M) [2, 23]: 8 infusions/hour
post-reinforcement pause length (M) [2, 23]: 223 s
infusion rate (M) [2, 28]: 4 infusions/hour
post-reinforcement pause length (M) [2, 28]: 572 s
potency on drug-reinforced behavior compared with METH ([2]; more responding under lowest dose under fixed-ratio schedule): greater potency
number of correct lever presses (M) ([3]; per-infusion dose 0.01 mg/kg): 53
post-reinforcement pause duration (M) ([3]; per-infusion dose 0.01 mg/kg): 225 s
number of correct lever presses (M) ([3]; per-infusion dose 0.05 mg/kg): 610
post-reinforcement pause duration (M) ([3]; per-infusion dose 0.05 mg/kg): 110 s
number of correct lever presses (M) ([3]; per-infusion dose 0.10 mg/kg): 933
post-reinforcement pause duration (M) ([3]; per-infusion dose 0.10 mg/kg): 179 s
number of correct lever presses (M) ([3]; per-infusion dose 0.50 mg/kg): 286
post-reinforcement pause duration (M) ([3]; per-infusion dose 0.50 mg/kg): 820 s
time to reach breakpoint ([3]; per-infusion dose 0.5 mg/kg, all except 2 sessions): ≤ 5 h
time to reach breakpoint ([3]; per-infusion doses at or below 0.1 mg/kg, all rats): less than 3 hrs
efficacy on drug-reinforced behavior compared with METH ([3]; more responding under optimal dose under a progressive-ratio schedule): greater efficacy
locomotor activity compared with vehicle [4, 25]: higher
AUC for activity, MDPV vs METH [4, 27]: significantly higher for MDPV than METH
resolution of high-dose suppression of locomotion [4]: 120–150 minutes post-injection
duration of significant low-dose locomotor stimulation [4]: 90 minutes post-injection
maximal increase of activity over baseline and/or vehicle [4]: about 4 fold
effect on body temperature [5]: modestly hyper-thermic; also recorded: negligible effect on temperature
body temperature compared to pre-injection baseline [5, 26]: higher
effect on rat body temperature at TA of 30°C ([5]; additional data, not shown): fails to significantly elevate rat body temperature
body temperature after 1.0 mg/kg compared with 5.6 mg/kg ([5]; s.c., TA 23±1 °C, 180-min post-injection time bin): higher
average cumulative dose when post-session stereotypy was not observed (M) [8]: 0.6 mg/kg per one hour session
average cumulative dose when post-session stereotypy was observed (M) [8]: 1.4 mg/kg per one hour session
time for which stereotypy scores were higher than vehicle ([9]; 0.5 mg/kg s.c.): 15 min
time for which stereotypy scores were higher than baseline ([9]; 0.5 mg/kg s.c., baseline immediately post-injection): 15 min
time for which stereotypy scores were higher than vehicle ([9]; 1.0 mg/kg s.c.): 60 min
time for which stereotypy scores were higher than baseline ([9]; 1.0 mg/kg s.c., baseline immediately post-injection): 60 min
time for which stereotypy scores were higher than vehicle ([9]; 3.2 mg/kg s.c.): entire session
time bins in which stereotypy scores were higher than baseline ([9]; 3.2 mg/kg s.c., baseline immediately post-injection): 15 to 135 min
time for which stereotypy scores were higher than vehicle ([9]; 5.6 mg/kg s.c.): entire session
IC50 [10]: 4.1 nM
IC50 [11]: 26 nM
IC50 [12]: 3350 nM
IC50 [13]: 31 nM
IC50 [14]: 44 nM
IC50 [15]: 9300 nM
DAT/SERT inhibition ratio [6]: > 100
activity as monoamine releaser [16]: ineffective as a monoamine releaser
doses at which stereotypies were reported [17]: above 0.3 mg/kg
doses after which stereotypies are exhibited [18]: 1 to 3 mg/kg
Ki [19]: 166 nM
Ki [20]: 1540 nM

COC(=O)[C@H]1[C@@H](OC(=O)c2ccccc2)C[C@@H]2CC[C@H]1N2C [cocaine]
DAT/SERT inhibition ratio [6]: 3.1
